Patent US20100137449A1, “SUBSTITUTED 1,3-CYCLOPENTADIONE MULTI-TARGET PROTEIN KINASE MODULATORS OF CANCER, ANGIOGENESIS AND THE INFLAMMATORY PATHWAYS ASSOCIATED THEREWITH” (METAPROTEOMICS, LLC, priority 2007, published 2010)

What was measured:
Assay in all cases: KinaseProfiler Assay
Arg(m) = Arg(m) (Mus musculus, UniProt Q4JIM5)
MKK4(m) = target: T1, MKK4(m) (Mus musculus, UniProt P47809)
T1 sequence (P47809 1-397): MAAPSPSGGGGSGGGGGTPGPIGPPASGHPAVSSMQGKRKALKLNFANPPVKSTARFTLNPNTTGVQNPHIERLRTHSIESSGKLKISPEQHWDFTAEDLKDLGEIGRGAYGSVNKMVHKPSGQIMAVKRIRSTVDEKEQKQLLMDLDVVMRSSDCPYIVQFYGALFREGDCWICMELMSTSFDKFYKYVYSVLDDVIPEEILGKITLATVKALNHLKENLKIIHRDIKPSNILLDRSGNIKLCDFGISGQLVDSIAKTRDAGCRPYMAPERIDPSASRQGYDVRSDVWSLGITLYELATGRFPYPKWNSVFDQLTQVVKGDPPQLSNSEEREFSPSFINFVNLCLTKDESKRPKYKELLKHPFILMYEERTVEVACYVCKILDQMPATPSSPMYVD

PKCδ(h) = PKCδ(h) (Homo sapiens, UniProt Q05655)
Chain of PKCδ(h) (Q05655 whole entry): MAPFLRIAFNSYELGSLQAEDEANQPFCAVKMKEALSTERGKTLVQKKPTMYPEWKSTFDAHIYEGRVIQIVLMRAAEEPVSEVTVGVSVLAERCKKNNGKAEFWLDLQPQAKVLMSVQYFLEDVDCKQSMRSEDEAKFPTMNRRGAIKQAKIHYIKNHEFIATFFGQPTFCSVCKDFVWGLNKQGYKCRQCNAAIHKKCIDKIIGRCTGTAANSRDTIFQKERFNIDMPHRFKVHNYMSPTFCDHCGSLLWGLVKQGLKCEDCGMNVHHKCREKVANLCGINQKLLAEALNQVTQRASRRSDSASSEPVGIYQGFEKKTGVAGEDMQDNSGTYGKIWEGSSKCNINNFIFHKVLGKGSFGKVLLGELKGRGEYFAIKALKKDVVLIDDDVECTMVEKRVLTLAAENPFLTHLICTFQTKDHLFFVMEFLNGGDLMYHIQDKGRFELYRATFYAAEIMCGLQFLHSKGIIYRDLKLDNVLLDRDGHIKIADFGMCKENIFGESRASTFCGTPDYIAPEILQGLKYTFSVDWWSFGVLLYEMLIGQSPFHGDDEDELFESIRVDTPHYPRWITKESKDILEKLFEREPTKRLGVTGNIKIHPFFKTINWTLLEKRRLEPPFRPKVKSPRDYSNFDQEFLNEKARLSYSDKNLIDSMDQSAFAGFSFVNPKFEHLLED

Abl(H396P)(h) = Abl(H396P)(h) (Homo sapiens, UniProt P00519, H396P)
MST3(h) = MST3(h) (Homo sapiens, UniProt Q9Y6E0)
Chain of MST3(h) (Q9Y6E0 whole entry): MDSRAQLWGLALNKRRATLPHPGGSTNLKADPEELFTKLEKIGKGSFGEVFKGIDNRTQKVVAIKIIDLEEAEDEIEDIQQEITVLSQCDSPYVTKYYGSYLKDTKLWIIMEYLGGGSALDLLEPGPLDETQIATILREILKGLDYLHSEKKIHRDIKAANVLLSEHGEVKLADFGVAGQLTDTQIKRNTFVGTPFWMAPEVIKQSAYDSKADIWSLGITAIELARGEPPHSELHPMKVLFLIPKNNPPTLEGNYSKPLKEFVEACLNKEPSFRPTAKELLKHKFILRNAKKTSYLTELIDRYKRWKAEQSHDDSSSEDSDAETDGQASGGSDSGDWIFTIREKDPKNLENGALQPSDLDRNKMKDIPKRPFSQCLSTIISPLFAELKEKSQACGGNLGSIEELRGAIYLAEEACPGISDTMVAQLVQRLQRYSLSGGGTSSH

Flt4(h) = Flt4(h) (Homo sapiens, UniProt P35916)
Chain of Flt4(h) (P35916 25-1363): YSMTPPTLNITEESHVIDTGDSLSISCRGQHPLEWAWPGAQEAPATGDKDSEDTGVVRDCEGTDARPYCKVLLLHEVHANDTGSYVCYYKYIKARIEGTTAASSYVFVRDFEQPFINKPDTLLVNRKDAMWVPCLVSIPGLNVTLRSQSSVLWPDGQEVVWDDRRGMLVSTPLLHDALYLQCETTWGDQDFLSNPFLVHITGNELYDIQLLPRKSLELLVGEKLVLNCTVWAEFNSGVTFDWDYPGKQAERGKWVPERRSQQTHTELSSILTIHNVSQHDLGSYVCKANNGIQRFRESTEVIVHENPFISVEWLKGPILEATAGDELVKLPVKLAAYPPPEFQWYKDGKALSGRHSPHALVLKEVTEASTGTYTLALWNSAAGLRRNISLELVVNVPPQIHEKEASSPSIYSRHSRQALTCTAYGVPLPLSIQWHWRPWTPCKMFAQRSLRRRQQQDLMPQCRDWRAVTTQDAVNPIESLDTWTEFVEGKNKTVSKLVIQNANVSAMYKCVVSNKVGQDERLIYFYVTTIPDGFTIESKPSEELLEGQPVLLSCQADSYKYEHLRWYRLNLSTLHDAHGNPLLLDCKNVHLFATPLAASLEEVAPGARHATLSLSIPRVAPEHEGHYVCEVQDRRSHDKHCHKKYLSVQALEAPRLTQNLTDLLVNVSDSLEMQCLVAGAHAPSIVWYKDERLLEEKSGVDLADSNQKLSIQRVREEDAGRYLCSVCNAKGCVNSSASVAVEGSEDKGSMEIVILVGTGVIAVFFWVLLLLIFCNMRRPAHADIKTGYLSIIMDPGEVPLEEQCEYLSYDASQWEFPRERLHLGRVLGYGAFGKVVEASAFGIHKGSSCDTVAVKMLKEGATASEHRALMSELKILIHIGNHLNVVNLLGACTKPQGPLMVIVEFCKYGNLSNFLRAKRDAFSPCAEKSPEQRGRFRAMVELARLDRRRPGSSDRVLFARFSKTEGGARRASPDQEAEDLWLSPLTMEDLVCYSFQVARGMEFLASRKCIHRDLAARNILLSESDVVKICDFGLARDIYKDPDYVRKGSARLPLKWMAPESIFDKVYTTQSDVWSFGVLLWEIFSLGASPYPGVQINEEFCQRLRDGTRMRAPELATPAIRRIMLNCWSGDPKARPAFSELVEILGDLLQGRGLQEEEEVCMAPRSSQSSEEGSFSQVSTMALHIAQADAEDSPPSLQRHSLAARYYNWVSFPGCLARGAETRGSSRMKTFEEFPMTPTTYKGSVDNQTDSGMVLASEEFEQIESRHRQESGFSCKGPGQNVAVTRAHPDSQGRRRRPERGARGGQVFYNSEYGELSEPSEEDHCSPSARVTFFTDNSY

SGK2(h) = target: T2, SGK2(h) (Homo sapiens, UniProt Q9HBY8)
T2 sequence (Q9HBY8 1-367): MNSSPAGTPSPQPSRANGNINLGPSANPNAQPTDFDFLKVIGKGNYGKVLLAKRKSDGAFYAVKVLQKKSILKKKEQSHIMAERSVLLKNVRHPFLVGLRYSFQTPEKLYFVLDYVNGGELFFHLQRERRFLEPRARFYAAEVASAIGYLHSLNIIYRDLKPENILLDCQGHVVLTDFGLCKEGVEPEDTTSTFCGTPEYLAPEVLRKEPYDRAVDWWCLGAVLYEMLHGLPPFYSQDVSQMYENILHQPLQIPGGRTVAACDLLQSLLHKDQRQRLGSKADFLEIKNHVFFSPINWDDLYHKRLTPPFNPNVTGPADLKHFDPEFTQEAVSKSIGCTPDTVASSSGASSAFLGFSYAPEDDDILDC

IKKβ(h) = target: T3, IKKβ(h) (Homo sapiens, UniProt O14920)
T3 sequence (O14920 1-756): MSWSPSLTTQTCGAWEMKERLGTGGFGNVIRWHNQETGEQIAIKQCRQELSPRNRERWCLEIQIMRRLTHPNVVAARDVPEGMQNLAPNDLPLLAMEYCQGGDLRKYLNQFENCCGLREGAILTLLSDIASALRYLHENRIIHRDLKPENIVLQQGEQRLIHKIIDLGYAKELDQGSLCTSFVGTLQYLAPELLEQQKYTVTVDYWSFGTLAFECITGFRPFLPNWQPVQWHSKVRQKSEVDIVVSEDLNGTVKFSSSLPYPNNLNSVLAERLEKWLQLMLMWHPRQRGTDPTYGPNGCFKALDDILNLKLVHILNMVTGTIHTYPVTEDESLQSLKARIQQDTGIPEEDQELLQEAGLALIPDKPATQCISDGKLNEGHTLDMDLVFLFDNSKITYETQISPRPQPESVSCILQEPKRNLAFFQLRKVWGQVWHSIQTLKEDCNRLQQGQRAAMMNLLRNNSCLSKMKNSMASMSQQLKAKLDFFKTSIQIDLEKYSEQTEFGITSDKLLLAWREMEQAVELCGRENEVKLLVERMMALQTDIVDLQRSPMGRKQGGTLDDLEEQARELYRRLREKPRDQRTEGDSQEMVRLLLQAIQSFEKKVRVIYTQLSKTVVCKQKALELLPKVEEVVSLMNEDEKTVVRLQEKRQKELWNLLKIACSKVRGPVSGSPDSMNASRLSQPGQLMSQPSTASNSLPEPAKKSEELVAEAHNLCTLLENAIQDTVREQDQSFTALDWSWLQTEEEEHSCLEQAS

Chain of Arg(m) (Q4JIM5 whole entry): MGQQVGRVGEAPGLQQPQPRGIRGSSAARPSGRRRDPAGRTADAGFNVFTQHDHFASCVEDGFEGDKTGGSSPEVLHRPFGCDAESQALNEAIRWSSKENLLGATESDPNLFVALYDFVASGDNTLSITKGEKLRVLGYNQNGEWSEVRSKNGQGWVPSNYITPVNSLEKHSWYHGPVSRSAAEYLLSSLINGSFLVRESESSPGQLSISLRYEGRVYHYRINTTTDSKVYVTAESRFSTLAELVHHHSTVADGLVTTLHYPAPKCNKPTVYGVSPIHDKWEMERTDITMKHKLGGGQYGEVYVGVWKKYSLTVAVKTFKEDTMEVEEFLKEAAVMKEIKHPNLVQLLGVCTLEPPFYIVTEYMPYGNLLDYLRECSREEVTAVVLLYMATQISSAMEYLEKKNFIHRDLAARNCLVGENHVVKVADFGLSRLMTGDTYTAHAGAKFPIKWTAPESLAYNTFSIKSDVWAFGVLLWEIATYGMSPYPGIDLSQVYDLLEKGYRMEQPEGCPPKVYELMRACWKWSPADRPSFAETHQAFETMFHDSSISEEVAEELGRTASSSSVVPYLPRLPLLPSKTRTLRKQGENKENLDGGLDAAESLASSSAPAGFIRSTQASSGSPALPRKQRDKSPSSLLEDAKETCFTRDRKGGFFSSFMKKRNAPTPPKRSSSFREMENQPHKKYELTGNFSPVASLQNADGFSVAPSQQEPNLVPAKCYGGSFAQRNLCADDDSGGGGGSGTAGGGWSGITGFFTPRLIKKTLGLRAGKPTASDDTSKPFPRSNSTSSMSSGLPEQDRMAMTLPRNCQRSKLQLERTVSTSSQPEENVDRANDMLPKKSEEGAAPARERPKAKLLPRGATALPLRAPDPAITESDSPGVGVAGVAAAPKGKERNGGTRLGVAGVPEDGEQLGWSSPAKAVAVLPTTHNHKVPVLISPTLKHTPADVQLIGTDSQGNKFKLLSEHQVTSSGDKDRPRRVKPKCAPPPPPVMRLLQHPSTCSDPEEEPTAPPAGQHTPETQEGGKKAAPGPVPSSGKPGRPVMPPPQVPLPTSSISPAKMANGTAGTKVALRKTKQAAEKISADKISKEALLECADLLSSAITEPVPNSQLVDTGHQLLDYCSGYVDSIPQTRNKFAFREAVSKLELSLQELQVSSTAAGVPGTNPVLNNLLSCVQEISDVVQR

## CC(C)CCC(=O)[C@]1(O)C(O)=C(C(=O)C(C)C)C(=O)[C@H]1CCC(C)C [TH2, tetrahydroiso-cohumulone]
Arg(m); 1 μg/ml
  kinase inhibition: 100% of control
Arg(m); 5 μg/ml
  kinase inhibition: 101% of control
Arg(m); 25 μg/ml
  kinase inhibition: 103% of control
Arg(m); 50 μg/ml
  kinase inhibition: 88% of control
Arg(m); 100 μg/ml
  kinase inhibition: 62% of control
MKK4(m); 1 μg/ml
  kinase inhibition: 120% of control
MKK4(m); 5 μg/ml
  kinase inhibition: 127% of control
MKK4(m); 25 μg/ml
  kinase inhibition: 91% of control
MKK4(m); 50 μg/ml
  kinase inhibition: 95% of control
MKK4(m); 100 μg/ml
  kinase inhibition: 85% of control
PKCδ(h); 1 μg/ml
  kinase inhibition: 111% of control
PKCδ(h); 5 μg/ml
  kinase inhibition: 110% of control
PKCδ(h); 25 μg/ml
  kinase inhibition: 97% of control
PKCδ(h); 50 μg/ml
  kinase inhibition: 92% of control
PKCδ(h); 100 μg/ml
  kinase inhibition: 80% of control
Abl(H396P)(h); 1 μg/ml
  kinase inhibition: 96% of control
Abl(H396P)(h); 5 μg/ml
  kinase inhibition: 103% of control
Abl(H396P)(h); 25 μg/ml
  kinase inhibition: 83% of control
Abl(H396P)(h); 50 μg/ml
  kinase inhibition: 65% of control
Abl(H396P)(h); 100 μg/ml
  kinase inhibition: 54% of control
MST3(h); 1 μg/ml
  kinase inhibition: 107% of control
MST3(h); 5 μg/ml
  kinase inhibition: 89% of control
MST3(h); 25 μg/ml
  kinase inhibition: 87% of control
MST3(h); 50 μg/ml
  kinase inhibition: 46% of control
MST3(h); 100 μg/ml
  kinase inhibition: 45% of control
Flt4(h); 1 μg/ml
  kinase inhibition: 117% of control
Flt4(h); 5 μg/ml
  kinase inhibition: 113% of control
Flt4(h); 25 μg/ml
  kinase inhibition: 88% of control
Flt4(h); 50 μg/ml
  kinase inhibition: 80% of control
Flt4(h); 100 μg/ml
  kinase inhibition: 55% of control
SGK2(h); 1 μg/ml
  kinase inhibition: 133% of control
SGK2(h); 5 μg/ml
  kinase inhibition: 116% of control
SGK2(h); 25 μg/ml
  kinase inhibition: 112% of control
SGK2(h); 50 μg/ml
  kinase inhibition: 121% of control
SGK2(h); 100 μg/ml
  kinase inhibition: 69% of control
IKKβ(h); 1 μg/ml
  kinase inhibition: 111% of control
IKKβ(h); 5 μg/ml
  kinase inhibition: 107% of control
IKKβ(h); 25 μg/ml
  kinase inhibition: 94% of control
IKKβ(h); 50 μg/ml
  kinase inhibition: 77% of control
IKKβ(h); 100 μg/ml
  kinase inhibition: 76% of control
